These results are taken from ChEMBL document CHEMBL5360657, “Discovery of the TLR7/8 Antagonist MHV370 for Treatment of Systemic Autoimmune Diseases” (ACS Med Chem Lett, 2023).

The nature of series [1]: Volume of distribution at steady state in mouse at 1 mg/ml, po or iv. The format is ADME, organism-based. The following applies: in vivo.
A short description of series [2]: AUC in mouse at 1 mg/ml, iv. The format is ADME. Further details: dose 1 mg/ml, route iv. The note with it: in vivo.
Series [3] can be described thus: Volume of distribution at steady state in rat at 1 mg/ml, po or iv. The format is ADME, organism-based. The note with it: in vivo.
Series [4] in a line: AUC in rat at 1 mg/ml, po. The format is ADME. More on the design: dose 1 mg/ml, route po. The following applies: in vivo.
The target in a further series is T1, Toll-like receptor 8 (Homo sapiens, UniProt Q9NR97).
T1 sequence (Q9NR97 whole entry): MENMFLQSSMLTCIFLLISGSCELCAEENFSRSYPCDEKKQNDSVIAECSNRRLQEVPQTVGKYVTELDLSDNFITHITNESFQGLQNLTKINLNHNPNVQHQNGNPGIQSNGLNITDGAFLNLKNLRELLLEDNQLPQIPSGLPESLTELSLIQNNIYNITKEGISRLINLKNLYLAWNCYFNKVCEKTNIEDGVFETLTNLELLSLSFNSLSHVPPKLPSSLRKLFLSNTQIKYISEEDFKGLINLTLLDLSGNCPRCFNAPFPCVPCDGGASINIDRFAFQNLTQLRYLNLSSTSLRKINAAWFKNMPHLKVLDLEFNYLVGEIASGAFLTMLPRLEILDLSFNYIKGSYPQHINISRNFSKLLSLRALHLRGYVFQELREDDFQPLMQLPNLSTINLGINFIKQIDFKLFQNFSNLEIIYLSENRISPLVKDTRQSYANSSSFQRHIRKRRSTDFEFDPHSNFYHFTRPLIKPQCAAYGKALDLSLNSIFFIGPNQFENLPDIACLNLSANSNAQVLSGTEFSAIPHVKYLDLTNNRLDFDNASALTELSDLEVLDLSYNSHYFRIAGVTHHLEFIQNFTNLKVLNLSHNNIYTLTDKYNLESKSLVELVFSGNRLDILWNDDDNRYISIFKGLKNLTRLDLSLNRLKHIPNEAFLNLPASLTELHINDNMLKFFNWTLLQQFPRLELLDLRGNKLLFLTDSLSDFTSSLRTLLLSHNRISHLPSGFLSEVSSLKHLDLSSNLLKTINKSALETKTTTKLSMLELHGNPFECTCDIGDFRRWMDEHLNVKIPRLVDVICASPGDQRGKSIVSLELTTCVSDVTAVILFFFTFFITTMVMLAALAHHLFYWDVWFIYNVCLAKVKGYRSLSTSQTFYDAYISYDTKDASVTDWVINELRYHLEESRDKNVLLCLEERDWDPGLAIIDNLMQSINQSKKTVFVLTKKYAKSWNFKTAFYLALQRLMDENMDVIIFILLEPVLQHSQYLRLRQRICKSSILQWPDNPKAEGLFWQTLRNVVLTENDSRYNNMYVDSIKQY
Put plainly: Antagonist activity at TLR8 in human PBMC cells […] assessed as reduction in IL-6 level measured after 20 hrs by AlphaLISA assay. The format is cell-based.

The next series has as its target T2, Toll-like receptor 9 (Homo sapiens, UniProt Q9NR96).
T2 sequence (Q9NR96 whole entry): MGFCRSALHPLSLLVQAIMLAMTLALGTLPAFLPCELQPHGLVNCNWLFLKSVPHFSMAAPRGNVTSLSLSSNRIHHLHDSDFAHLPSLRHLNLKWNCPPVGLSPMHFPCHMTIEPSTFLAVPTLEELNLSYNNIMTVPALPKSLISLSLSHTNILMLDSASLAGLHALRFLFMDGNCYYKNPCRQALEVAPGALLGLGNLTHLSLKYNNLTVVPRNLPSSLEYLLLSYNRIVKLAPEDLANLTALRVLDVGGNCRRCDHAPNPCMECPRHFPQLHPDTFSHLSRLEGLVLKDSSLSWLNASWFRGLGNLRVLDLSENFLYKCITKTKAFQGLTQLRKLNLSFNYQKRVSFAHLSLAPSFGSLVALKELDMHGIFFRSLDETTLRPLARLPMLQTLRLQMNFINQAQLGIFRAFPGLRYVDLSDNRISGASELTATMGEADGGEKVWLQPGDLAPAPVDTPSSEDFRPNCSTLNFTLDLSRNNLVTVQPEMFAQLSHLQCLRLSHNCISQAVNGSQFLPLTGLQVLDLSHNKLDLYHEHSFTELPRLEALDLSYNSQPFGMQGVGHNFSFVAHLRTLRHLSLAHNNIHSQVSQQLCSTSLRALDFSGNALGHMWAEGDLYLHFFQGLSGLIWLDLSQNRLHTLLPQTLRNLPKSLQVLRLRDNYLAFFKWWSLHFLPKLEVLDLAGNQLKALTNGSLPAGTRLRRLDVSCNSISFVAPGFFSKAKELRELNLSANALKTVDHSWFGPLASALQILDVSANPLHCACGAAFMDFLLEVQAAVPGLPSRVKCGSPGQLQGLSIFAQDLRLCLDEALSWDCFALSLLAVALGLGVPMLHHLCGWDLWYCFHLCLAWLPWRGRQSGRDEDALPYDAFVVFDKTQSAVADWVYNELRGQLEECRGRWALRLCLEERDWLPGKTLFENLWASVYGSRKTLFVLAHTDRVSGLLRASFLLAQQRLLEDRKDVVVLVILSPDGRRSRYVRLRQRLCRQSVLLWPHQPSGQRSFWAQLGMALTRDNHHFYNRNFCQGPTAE
Put plainly: Antagonist activity at TLR9 in human PBMC cells assessed as reduction in IFN alpha measured after 20 hrs by AlphaLISA assay. The format is cell-based. (In general: In Alpha technology, singlet oxygen from a donor bead excites a nearby acceptor bead.)

Series [5] is described as follows: Permeability of the compound by PAMPA. The format is ADME.
Series [6] has as its target Voltage-gated inwardly rectifying potassium channel KCNH2 (Homo sapiens, UniProt Q12809). The series is described as follows: Displacement of [3H]-dofetilite from human ERG (unknown origin). The format is toxicity. For orientation: Loss of bound radioactivity is the signal in a displacement assay; it reports binding, not function.
Series [7] addresses T3, Cytochrome P450 3A4 (Homo sapiens, UniProt P08684). The series is described as follows: Inhibition of CYP3A4 (unknown origin). The format is ADME.
The target in series [8] is T3, Cytochrome P450 3A4. The series is described as follows: Time dependent inhibition of CYP3A4 (unknown origin) assessed as Kobs. The format is ADME.
Series [9] can be described thus: Metabolic stability in human liver microsomes assessed as intrinsic clearance. The format is ADME, Microsome. The note with it: read-out: CLH. (In general: Liver microsomes are a subcellular fraction often used to study metabolism.)
Series [10] can be described thus: Metabolic stability in mouse liver microsomes assessed as intrinsic clearance. The format is ADME, Microsome. The note with it: read-out: CLH.
The nature of series [11]: Metabolic stability in rat liver microsomes assessed as intrinsic clearance. The note with it: read-out: CLH. The format is ADME, Microsome.

T3 sequence (P08684 whole entry): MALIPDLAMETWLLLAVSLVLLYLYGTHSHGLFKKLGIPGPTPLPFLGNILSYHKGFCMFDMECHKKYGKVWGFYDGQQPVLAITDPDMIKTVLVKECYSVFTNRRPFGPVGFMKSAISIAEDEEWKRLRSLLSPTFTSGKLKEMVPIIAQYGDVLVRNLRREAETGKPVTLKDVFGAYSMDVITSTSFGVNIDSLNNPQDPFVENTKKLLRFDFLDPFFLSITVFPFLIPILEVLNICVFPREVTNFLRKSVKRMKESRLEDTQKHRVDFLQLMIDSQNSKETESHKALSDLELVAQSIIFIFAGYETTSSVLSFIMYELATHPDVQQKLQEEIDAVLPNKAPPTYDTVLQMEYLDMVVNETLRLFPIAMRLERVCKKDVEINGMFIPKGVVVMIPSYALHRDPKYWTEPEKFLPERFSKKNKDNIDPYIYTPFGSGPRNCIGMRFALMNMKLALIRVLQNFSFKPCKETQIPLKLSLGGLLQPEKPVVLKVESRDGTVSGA
Chain of Voltage-gated inwardly rectifying potassium channel KCNH2 (Q12809 whole entry): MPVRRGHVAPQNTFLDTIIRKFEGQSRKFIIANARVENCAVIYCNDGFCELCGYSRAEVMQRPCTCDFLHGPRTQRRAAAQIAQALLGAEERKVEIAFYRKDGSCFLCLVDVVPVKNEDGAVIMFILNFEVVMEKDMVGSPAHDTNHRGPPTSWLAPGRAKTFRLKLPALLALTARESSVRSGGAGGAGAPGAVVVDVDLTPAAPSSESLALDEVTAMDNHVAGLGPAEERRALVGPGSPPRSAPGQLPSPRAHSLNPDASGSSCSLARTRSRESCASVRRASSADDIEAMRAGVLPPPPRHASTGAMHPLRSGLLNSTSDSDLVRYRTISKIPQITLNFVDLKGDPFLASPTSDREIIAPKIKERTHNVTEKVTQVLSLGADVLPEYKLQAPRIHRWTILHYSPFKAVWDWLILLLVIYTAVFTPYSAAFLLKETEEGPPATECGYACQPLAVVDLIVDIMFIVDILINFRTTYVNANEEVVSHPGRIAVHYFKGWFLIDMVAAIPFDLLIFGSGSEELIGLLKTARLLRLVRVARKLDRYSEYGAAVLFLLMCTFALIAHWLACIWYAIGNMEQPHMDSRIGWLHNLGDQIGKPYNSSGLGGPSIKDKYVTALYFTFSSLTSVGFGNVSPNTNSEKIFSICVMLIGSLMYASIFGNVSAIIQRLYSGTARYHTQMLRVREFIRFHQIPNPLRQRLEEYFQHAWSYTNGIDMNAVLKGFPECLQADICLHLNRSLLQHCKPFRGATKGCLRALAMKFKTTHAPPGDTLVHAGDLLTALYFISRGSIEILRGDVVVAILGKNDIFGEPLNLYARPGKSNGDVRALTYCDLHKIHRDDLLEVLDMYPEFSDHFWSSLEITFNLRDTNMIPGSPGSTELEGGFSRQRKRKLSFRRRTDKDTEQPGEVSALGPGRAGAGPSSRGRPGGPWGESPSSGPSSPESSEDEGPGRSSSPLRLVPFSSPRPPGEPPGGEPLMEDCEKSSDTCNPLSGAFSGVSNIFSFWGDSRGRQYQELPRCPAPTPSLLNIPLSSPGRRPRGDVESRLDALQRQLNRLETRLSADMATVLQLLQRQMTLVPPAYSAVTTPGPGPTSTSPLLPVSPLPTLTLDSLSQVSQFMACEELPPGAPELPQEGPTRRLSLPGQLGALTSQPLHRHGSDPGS

By AUC is commonly meant the area under the concentration-time curve, a measure of exposure. Lower therefore signals low exposure. One may read the IC50 as the concentration needed to halve the response being measured. On to `Cc1cc(N2CCc3c(c(C)nn3CC34CCC(NC(=O)[C@@H]5COCCN5)(CC3)CC4)C2)c2cnn(C)c2n1` [MHV-370], for which the Vdss in series [1] came to 0.7 L/kg; in [3] it was 1.3 L/kg. The AUC in series [2] came to 5.67 µM·h; in [4] it was 2.82 µM·h. Moreover, the half-maximal inhibitory concentration (IC50) on Toll-like receptor 8 is 68 nM; on Toll-like receptor 9 it was 1000 nM; in series [6] it was greater than 30000 nM; against Cytochrome P450 3A4 [7], greater than 50000 nM. Moreover, the “log(permeability)” value in series [5] is -5.2. The Kobs on Cytochrome P450 3A4 [8] is 0.006 min⁻¹. In addition, the microsomal CLint was 19 µL/min/mg in series [9], 52 µL/min/mg in series [10] and 17 µL/min/mg in series [11].

On to `Cc1cc(N2CCc3c(c(C)nn3CC34CCC(N)(CC3)CC4)C2)c2cnn(C)c2n1`, for which the IC50 on Toll-like receptor 8 was 210 nM; at Toll-like receptor 9, 580 nM; in series [6], 29000 nM; at Cytochrome P450 3A4 [7], greater than 50000 nM. The “log(permeability)” value in [5] is -5.1. In addition, the Kobs at Cytochrome P450 3A4 [8] worked out at 0.002 min⁻¹. Also, the microsomal CLint was 19 µL/min/mg in series [9], 15 µL/min/mg in [10] and 36 µL/min/mg in series [11].

In the case of `CCNCC(=O)NC12CCC(Cn3nc(C)c4c3CCN(c3cc(C)nc5c3cnn5C)C4)(CC1)CC2`, the Vdss in series [1] amounted to 1 L/kg; in series [3], 3 L/kg. Moreover, the figures for the AUC in [2] and in [4] were 9.28 µM·h and 0.618 µM·h, respectively. Also, the half-inhibitory concentration (IC50) at Toll-like receptor 8 was 44 nM; at Toll-like receptor 9 it was 810 nM; in [6] it was greater than 30000 nM; against Cytochrome P450 3A4 [7], greater than 50000 nM. Also, the “log(permeability)” value in [5] is given as -5.3. In addition, the Kobs at Cytochrome P450 3A4 [8] worked out at 0.01 min⁻¹. Besides, the microsomal CLint in series [9] is 35 µL/min/mg; in series [10], 96 µL/min/mg; in series [11], less than 15 µL/min/mg.
